Literature values as cited in US12390417B2, “Praziquantel formulations” (Villya LLC, priority 2020, dated 2025).
Converted amounts (≈) assume the structure as drawn.

Details: in water; according to the Merck Index

solubility: 400 µg/mL (≈ 1280 µM)
SMILES: O=C(C1CCCCC1)N1CC(=O)N2CCc3ccccc3C2C1 (racemic) [Praziquantel, (RS)-2-(Cyclohexylcarbonyl)-1,2,3,6,7,11b-hexahydro-4H-pyrazino[2,1-a]isoquinolin-4-one]
